Patent US12397059B2, “Compounds and methods for the treatment and prevention of fibrotic disease states and cancer” (Purdue Research Foundation, priority 2019, dated 2025)

Tests used:
[1] = system: M2-induced THP-1 macrophages; test: Secreted CCL18 and IL-1β in THP-1 supernatants by ELISA; assay type: cell-based, human
Protocol: FIGS. 6A-6D show graphical data representative of various marker levels measured from M2-induced THP-1 macrophages treated with different concentrations of drugs for 48 hours (FIGS. 6A and 6B) or for 2 hours, then displaced with fresh medium and cultured for the remaining 46 hours (FIGS. 6C and 6D). In both cases, cell supernatants were collected and secreted CCL18 protein and IL-1β was detected by ELISA.
Further, to ensure that the above mRNA analyses accurately reflected the levels of profibrotic cytokines produced by IL-4, IL-6 plus IL-13 stimulated THP-1 cells, the concentrations of CCL18 and IL-1β polypeptides in the THP-1 supernatants were quantitated by ELISA assay.
CCL18 and IL-1β were quantified in induced THP-1 cell supernatants using a human DuoSet ELISA Development System (R&D Systems Europe, Abingdon, UK; #DY394-05) and an IL-1 beta Human ELISA Kit (Thermo Fisher Scientific, Waltham, MA; #BMS224-2) as described by manufactures.

[2] = system: BM-induced experimental pulmonary fibrosis in mice
Protocol: Studies were also performed to determine if macrophages in pulmonary fibrotic lungs might be specifically targeted with folate-linked drugs in vivo. […] (The BM model is widely regarded to be helpful in terms of enabling mechanistic investigations relevant to fibrogenesis in an in vivo context.)
More specifically, eight-week-old C57BL6 male mice from Charles River (average weight 22 g to 25 g) were housed under pathogen-free conditions at room temperature (22° C.) under a 12 hours light-dark cycle. Mice were placed on a folate deficient chow (Envigo Teklad Global Rat Food Pellets) for 1 week prior to the BM or PBS instillation. Fresh water and folate-deficient diet were freely available. All animal procedures were approved by the Purdue Animal Care and Use Committee in accordance with National Institute of Health guidelines.
Thereafter, the mice were anesthetized with ketamine/xylazine and the necks of the mice were shaved using hair remover lotion and then sterilized with 70% alcohol. A small incision was made on the neck to visualize the trachea. Mice were positioned at a 75-degree angle and injected intratracheally with 100 μL sterile PBS or BM (Cayman Chemicals, Ann Arbor, MI; #13877) dissolved in PBS (0.75 mg/kg) using a 1 cc syringe with 26 G needle. Body weights were monitored every other day throughout the experiment.
Lobes of the right lung collected above were weighed, placed in a pressure-tight vial (Supelco Inc., Bellefonte, PA; #27003), and hydrolyzed with 6N HCl (10 ml/g, v/w) in a sand bath at 120° C. for 3.5 hours. The hydrolyzed solution was cooled at 4° C. for 15 min and transferred to a 1.5 ml Eppendorf tube prior to centrifugation at 12,000 rcf for 15 min at 4° C. Supernatant was carefully collected, aliquoted and used for hydroxyproline (HYP) analysis.
For the subsequent HYP analysis, 10 μl of sample was transferred into a 96-well plate and neutralized with 10 μl of 5.3 M sodium hydroxide solution. Isopropanol (40 μl) was then added to each well followed by 20 μl of oxidation buffer and the mixture was incubated on a shaker at room temperature for 5 min. Analytical reagent (260 μl) was added, and the plate was incubated on a shaker at room temperature for 30 seconds and incubated immediately at 60° C. for 25 min. The absorbance was measured at 560 nm (A560) within 15 min. All reagents were prepared according to a previously reported protocol.
For histological analysis of the lung sections, fixed lungs (see above) were embedded in paraffin, sectioned and stained with hematoxylin-eosin (H&E), Masson's trichrome or F3 (anti-mouse FRβ antibody). Tissue sections were examined in a blinded manner by a licensed pathologist. More than 90×10^6 cells were quantified per section using Aperio-Image Scope (Leica Biosystems, Wetzlar, DE).
For this, BM-treated mice were intravenously injected every other day beginning on day 10 with either vehicle (3% DMSO in PBS) or Compound 1B (see FIG. 8A). […] In BM-induced experimental pulmonary fibrosis in mice, inflammation is known to persist for about 9-10 days after BM installation. Because, inflammation to fibrosis switch happens in this model approximately day 9 to day 14, and profibrotic markers start appearing at about day 10, dosing began on day 10 (FIG. 8A).
Two doses were given every other day till day 21. The individual doses on a day are separated by 6 hours to prevent any “tolerance” to TLR agonists. Mice were then sacrificed on day 21 and subjected immediately to bronchoalveolar lavage followed by resection of the lungs for immunohistochemistry and quantitation of collagen and hydroxyproline.

[3] = incubated continuously for 48 hours, ELISA

SMILES: CCCCc1nc2c(N)nc3ccccc3c2n1CC(C)(C)OC(=O)OCCSSCC(NC(=O)CCC(NC(=O)c1ccc(NCc2cnc3nc(N)[nH]c(=O)c3n2)cc1)C(=O)O)C(=O)O (centres unmarked) [Compound 1B]
- reduction of secreted CCL18 and IL-1β, comparison of the two agonists ([1]; drug exposure limited to 2 hours, then 46 hours fresh medium): superior
- secreted CCL18 protein [1, 3]: reductions
- secreted IL-1β [1, 3]: reductions
- lung histology with increasing dose ([2]; 1, 3, 10 nmol): lung histology improved
- order of efficacy on lung hydroxyproline content ([2]; day 21): 10 nmol/mouse>3 nmol/mouse>1 nmol/mouse>0 nmol/mouse
- anti-fibrotic response, lung sections stained DAPI, anti-F4/80, anti-CD206 ([2]; differences between treated groups): robust anti-fibrotic response
- collagen stain, Masson's trichrome ([2]; tail vein injection): strongly suppressed
- lung histology, H&E staining ([2]; treated beginning on day 10): lung architecture that resembles that of healthy mice
